Measurements taken from article PMC10953480 (RSC Medicinal Chemistry, 2024).
pIC50: −log10 of the molar value.

Assays:
Cos-7 cells = test: Cytotoxicity to Cos-7 cells; format: cell-based, African green monkey (Cercopithecus aethiops)
CaV2.2 = settings: read-out: CaV2.2 IC50; whole-cell patch clamp; cited from earlier work

SMILES | concentration up to which well tolerated by Cos-7 cells (Cos-7 cells) [µM] | pIC50 (CaV2.2)
CN(C)CCCOc1ccc(C(=O)Nc2ccccc2Oc2ccccc2)cc1 [7b] | ≤ 100 | 
NC(N)=NCCCOc1ccc(C(=O)Nc2ccccc2Oc2ccc(F)cc2)cc1 [MONIRO-1 6a] |  | 4.47
